Data reported in publication PMC7501296, “Rapid and direct control of target protein levels with VHL-recruiting dTAG molecules” (Nature Communications, 2020).

How the values were obtained:
[1] = test system: LACZ-FKBP12^F36V; experiment: Immunoblot of PATU-8902 LACZ-FKBP12F36V clone; format: cell-based; conditions: PATU-8902 LACZ-FKBP12F36V cells, 4 h
Procedure: (§1) PATU-8902 LACZ-FKBP12^F36V and FKBP12^F36V-KRAS^G12V; KRAS^−/− cells and 293T cells were lysed with RIPA buffer supplemented with cOmplete protease inhibitors (Roche), PhosSTOP phosphatase inhibitors (Roche), and 0.1% benzonase (Novagen). Proteins were separated using NuPAGE Bolt^TM Bis–Tris gels (Thermo Fisher Scientific) and transferred to nitrocellulose membranes, which were blocked with Odyssey Blocking Buffer (LI-COR) and incubated with primary antibodies overnight. Membranes were washed three times with TBS-T, incubated with the appropriate fluorescently labeled infrared secondary antibodies, washed again three times with TBS-T, and assessed using an Odyssey CLx Imager (LI-COR)[6],[15]. EWS502 cells were lysed with Cell Lysis Buffer (Cell Signaling Technology) supplemented with cOmplete protease inhibitors (Roche). Proteins were separated using SDS-PAGE gels and transferred to PVDF membranes, which were blocked with 5% milk in TBS-T and incubated with primary antibodies overnight. Membranes were washed five times with TBS-T, incubated with the appropriate horseradish peroxidase-conjugated secondary antibodies, washed again five times with TBS-T, and imaged. […]

[2] = biological target: T1, CDK9 (Homo sapiens, UniProt P50750); experiment: Immunoblot, co-treatment with THAL-SNS-032 and/or dTAGV-1 in PATU-8902 LACZ-FKBP12F36V clone; format: cell-based
T1 construct: endogenous in cells; host or cells: PATU-8902 LACZ-FKBP12^F36V clone
Procedure: as §1, with “imaged. The following primary antibodies were employed in this study: HA (Cell Signaling Technology #3724 and #2367, dilution at 1:1000), phospho-ERK1/2 T202/Y204 (Cell Signaling Technology #4370, dilution at 1:1000), ERK1/2 (Cell Signaling Technology #4696, dilution at 1:1000), phospho-AKT S473 (Cell Signaling Technology #4060, dilution at 1:1000), AKT (Cell Signaling Technology #2920, dilution at 1:1000), FKBP12 (Abcam #ab24373, dilution at 1:1000), GFP (Cell Signaling Technology #2555, dilution at 1:1000), FLI (Abcam #ab15289, dilution at 1:2000), NKX2-2 (Abcam #ab187375, dilution at 1:1000), GAPDH (Cell Signaling Technology #2118, dilution at 1:3000), Vinculin (Cell Signaling Technology #13901, dilution at 1:3000), β-Actin (Cell Signaling Technology #58169, dilution at 1:3000), and α-Tubulin (Cell Signaling Technology #3873, dilution at 1:5000).” for “imaged.”

With `CC[C@H](C(=O)N1CCCC[C@H]1C(=O)O[C@H](CCc1ccc(OC)c(OC)c1)c1ccccc1OCC(=O)NCCCCCCC(=O)N[C@H](C(=O)N1C[C@H](O)C[C@H]1C(=O)N[C@@H](C)c1ccc(-c2scnc2C)cc1)C(C)(C)C)c1cc(OC)c(OC)c(OC)c1` [dTAG^V-1] as the compound, how does the “Degradation of FKBP12F36V-fusion (LACZ-FKBP12F36V), immunoblot” value [1] read?
Its value is “effective degradation”.

And the “Degradation of both LACZ-FKBP12F36V and CDK9 on co-treatment” value ([2]; co-treatment dTAGV-1 + THAL-SNS-032, 24 h)?
The value was “pronounced degradation”.

What about the CDK9 protein levels ([2]; dTAGV-1 alone, 24 h) of the same compound?
Its CDK9 protein levels is “did not alter”.
